Laboratory results reported in patent US20180346518A1, “LYSOBACTIN FOR USE IN THE TREATMENT OF BOVINE MASTITIS” (BAYER ANIMAL HEALTH GMBH, priority 2015, published 2018).
≈ marks a conversion by molar mass, not a printed value. Numbered stars: 1 amine (or outer) side, 2 acyl side, 3 side chain; on linkers, the order of the positions; unused ones are H or OH. Bridge positions count the residues as written; N and C are the ends. Square brackets hold non-standard residues; d marks the D form. Peptide text beside a SMILES is read from it. Phe(3R-OH) = O=C([C@@H](N[*:1])[C@H](O[*:3])c1ccccc1)[*:2]; Asn(3S-OH) = NC(=O)[C@@H](O)[C@H](N)C(=O)O; Leu(3R-OH) = CC(C)[C@@H](O)[C@H](N)C(=O)O; aThr = C[C@H](O)[C@H](N)C(=O)O

How the values were obtained:
Streptococcus agalactiae = assay: microbroth dilution MIC (CLSI), MIC90; assay type: cell-based
Procedure: (§1) The in vitro antibacterial activity of lysobactin against common mastitis pathogens such as Staphylococcus aureus, Coagulase-negative staphylococci, Streptococcus uberis, Streptococcus dvsgalactiae, Streptococcus agalactiae, Trueperella pyogenes, Escherichia coli, or Klebsiella pneumoniae was assessed by microbroth dilution MIC methodology as described by the Clinical and Laboratory Standards Institute (CLSI) in order to obtain the Minimal Inhibitory Concentration (MIC), which is defined as the lowest concentration of a substance that prevents visible growth of a bacterium. The results expressed as MIC90 are summarized in the following table, where the MIC90 is defined as the concentration at which the growth of at least 90% of the strains of a given species is inhibited.

Staphylococcus aureus [1] = assay: microbroth dilution MIC (CLSI), MIC90; assay type: cell-based
Procedure: as §1

Trueperella pyogenes = assay: microbroth dilution MIC (CLSI), MIC90; assay type: cell-based
Procedure: as §1

Klebsiella pneumoniae = assay: microbroth dilution MIC (CLSI), MIC90; assay type: cell-based
Procedure: as §1

[2] = test system: Streptococcus dysgalactiae; assay: microbroth dilution MIC (CLSI), MIC90; assay type: cell-based
Procedure: as §1

Escherichia coli = assay: microbroth dilution MIC (CLSI), MIC90; assay type: cell-based
Procedure: as §1

Streptococcus uberis = assay: microbroth dilution MIC (CLSI), MIC90; assay type: cell-based
Procedure: as §1

[3] = test system: Coagulase-negative staphylococci; assay: microbroth dilution MIC (CLSI), MIC90; assay type: cell-based
Procedure: as §1

in vivo = assay: in vivo; design: species or system Holstein cows; details: female, Holstein, bovine, 150 mg
Procedure: The study was designed as a non-pivotal study suitable to investigate the milk pharmacokinetics of the active substance lysobactin after single intracisternal application to lactating dairy cows. The active substance was provided in a paraffine based service formulation suitable for intracisternal application containing 150 mg lysobactin B in 10 g oily suspension. The test item was administered as single intracisternal treatment at a dose rate of 150 mg lysobactin to a single hind quarter of four lactating dairy cows each. The dairy cows on study (Holstein cows) represented the target population in age, lactation number, lactation stage, milk yield and breed. The animals were stalled in a tie-barn and were fed with standard feed for dairy cows consisting of corn and grass silage and milk performance feed. Milking was twice daily at a 12 hour interval using a bucket-type milking device. Frequent milk sampling was performed from the treated and respective control quarters prior to (0 h) and over a period of 168 h after treatment (0.5, 1, 2, 4, 6, 8, 12, 24, 36, 48, 60, 72, 84, 96, 120, 144, and 168 h) by manual stripping of the respective udder quarters. Milk samples at routine milking times were gathered prior to milking. Concentrations of the active substance lysobactin in milk were analyzed by HPLC with detection by tandem mass spectrometry. The limit of quantitation was 0.05 mg/L. Pharmacokinetic evaluation of milk concentration data was based on non-compartmental methods and comprised PK-parameters to adequately describe the absorption, distribution and elimination profile of the active substance in milk.

Staphylococcus aureus [4] = assay: Staphylococcus aureus acute mouse mastitis model; assay type: in vivo, lactating CD-1 mice
Procedure: The efficacy of lysobactin (formulated in a hydrogel at pH 4.7) was tested in a Staphylococcus aureus acute mouse mastitis model established at the University of Sherbrooke, Canada (Broui-llette et al, Vet. Microbiol. (2004) 4:253-262), that is hereby incorporated by reference. Both the abdominal mammary glands (L4 and R4) of lactating CD-1 mice were intramammarily infected with 100 CFU (colony forming units) of S. aureus. The mice were treated intramammarily with lysobactin four hours after infection. Each treatment group contained at least 3 mice (6 quarters) 14 hours later (18 hours after inoculation) mice were sacrificed, mammary glands were harvested and the CFU content evaluated by plating 10-fold serial dilutions of mammary gland homogenates. The CFU content was expressed as log10 count. The detection limit was 200 CFU/g of gland. Glands with less than 200 CFU/g were regarded as cleared.

[5] = test system: Streptococcus uberis ATCC 27958; assay: spontaneous resistance development; assay type: cell-based; details: for obtained colonies: plated CFU 2.4 × 10^10
Procedure: (§2) The frequency of spontaneous resistance development was assessed by plating at least 1×10^9 colony forming units of the respective bacterial strain on agar plates containing lysobactin at either 4× or 8× the MIC and incubating the plates at 35+/−2° C. […] The resulting number is defined as the spontaneous resistance frequency, and is an indication for the likelihood of resistant isolates to appear during an infection.

[6] = test system: Staphylococcus aureus ATCC 29740; assay: spontaneous resistance development; assay type: cell-based; details: for obtained colonies: plated CFU 3.52 × 10^9
Procedure: as §2

[7] = test system: Streptococcus uberis ATCC 27958; assay: in vitro kill kinetics in milk; assay type: cell-based; details: at 48 h; full-fat milk; 4, 8, 16, 32 and 64 μg/mL
Procedure: (§3) In order to assess the ability of lysobactin to kill bacteria in milk, flasks containing different concentrations of lysobactin in store-bought full-fat milk were inoculated with 1-2×10^6 colony forming units/ml of a representative strain of either Staphylococcus aureus or Streptococcus uberis. The flasks were incubated for 24-48 hours in a shaking water bath at 35+/−2° C., and viable bacterial counts in each flask were determined at several time-points by diluting and plating samples on agar plates. A reduction of the number of viable bacteria in the initial inoculum by at least 99.9% is defined as bactericidal activity.
(§4) The kill kinetics of lysobactin against Staphylococcus aureus ATCC 29740 and Streptococcus uberis ATCC 27958 in milk were determined for concentrations of lysobactin of 4, 8, 16, 32 and 64 μg/mL. Results are depicted in FIG. 1 (CFU: colony forming units). A cidality at 24 h and 48 h, respectively, can be postulated for S. aureus and S. uberis.

[8] = test system: Staphylococcus aureus ATCC 29740; assay: in vitro kill kinetics in milk; assay type: cell-based; details: at 24 h; full-fat milk; 4, 8, 16, 32 and 64 μg/mL
Procedure: as §3, §4

CC[C@H](C)[C@@H]1NC(=O)[C@@H](CCCNC(=N)N)NC(=O)[C@H](CC(C)C)NC(=O)[C@H]([C@H](O)C(C)C)NC(=O)[C@@H](NC(=O)[C@H](CC(C)C)NC(=O)[C@H](N)CC(C)C)[C@@H](c2ccccc2)OC(=O)[C@H](CO)NC(=O)[C@H]([C@H](O)C(N)=O)NC(=O)CNC(=O)[C@H]([C@H](C)O)NC1=O [lysobactin] (H-[dL]L[Phe(3R-OH)][Leu(3R-OH)]L[dR]I[aThr]G[Asn(3S-OH)]S; ester 3-C)
MIC90 (Streptococcus agalactiae): 0.25 µg/mL (≈ 0.196 µM) | MIC90 (Staphylococcus aureus [1]): 0.5 µg/mL (≈ 0.392 µM) | MIC90 (Trueperella pyogenes): 0.5 µg/mL (≈ 0.392 µM) | MIC90 (Klebsiella pneumoniae): > 16 µg/mL | MIC90 [2]: 0.25 µg/mL (≈ 0.196 µM) | MIC90 (Escherichia coli): > 16 µg/mL | MIC90 (Streptococcus uberis): 0.125 µg/mL (≈ 0.0979 µM) | MIC90 [3]: 0.5 µg/mL (≈ 0.392 µM) | AUC(0-inf) (in vivo): 2320 µg·h/mL | Cmax (in vivo): 342 µg/mL | Tmax (in vivo): 4 h | half-life (in vivo): 11.6 h | AUC(0-t) (in vivo; AUC0-12 h): 1870 µg·h/mL | AUC(0-t) (in vivo; AUC0-24 h): 2210 µg·h/mL | reduction of median CFU content of mammary glands (Staphylococcus aureus [4]; 50 μg intramammary, hydrogel pH 4.7, 4 h after infection, glands harvested 18 h after inoculation): ca. 4 log10 | clearance of infection from glands (Staphylococcus aureus [4]; 400 μg intramammary, hydrogel pH 4.7, cleared = less than 200 CFU/g of gland): eliminates the infection from all infected glands | frequency of resistance ([5]; 24 h, 2 μg/ml (4x MIC)): <4.17 × 10^−11 | obtained colonies ([5]; 24 h, 2 μg/ml (4x MIC)): 0 | frequency of resistance ([5]; 24 h, 4 μg/ml (8x MIC)): <4.17 × 10^−11 | obtained colonies ([5]; 24 h, 4 μg/ml (8x MIC)): 0 | frequency of resistance ([5]; 48 h, 2 μg/ml (4x MIC)): <4.17 × 10^−11 | obtained colonies ([5]; 48 h, 2 μg/ml (4x MIC)): 0 | frequency of resistance ([5]; 48 h, 4 μg/ml (8x MIC)): <4.17 × 10^−11 | obtained colonies ([5]; 48 h, 4 μg/ml (8x MIC)): 0 | frequency of resistance ([6]; 24 h, 2 μg/ml (4x MIC)): <2.84 × 10^−10 | obtained colonies ([6]; 24 h, 2 μg/ml (4x MIC)): 0 | frequency of resistance ([6]; 24 h, 4 μg/ml (8x MIC)): <2.84 × 10^−10 | obtained colonies ([6]; 24 h, 4 μg/ml (8x MIC)): 0 | frequency of resistance ([6]; 48 h, 2 μg/ml (4x MIC)): <2.84 × 10^−10 | obtained colonies ([6]; 48 h, 2 μg/ml (4x MIC)): 0 | frequency of resistance ([6]; 48 h, 4 μg/ml (8x MIC)): <2.84 × 10^−10 | obtained colonies ([6]; 48 h, 4 μg/ml (8x MIC)): 0 | kill kinetics, bactericidal activity (cidality) [7]: cidality | kill kinetics, bactericidal activity (cidality) [8]: cidality
